Source: ChEMBL document CHEMBL3885881, “DrugMatrix”

Organism: Rattus norvegicus
Assay: DrugMatrix - Regimen: Daily Repeat
Type: toxicity, organism-based, Sprague-Dawley
Parameters: regimen Daily Repeat, gender Male, age 6-8 weeks
Conditions: in vivo, po, route oral GAVAGE, […]; for ABSOLUTE BASOPHIL / ABSOLUTE EOSINOPHIL / ABSOLUTE LYMPHOCYTE / ABSOLUTE MONOCYTE / ABSOLUTE SEGMENTED NEUTROPHIL / BASOPHIL / EOSINOPHIL / ERYTHROCYTE COUNT / HEMATOCRIT / HEMOGLOBIN / LEUKOCYTE COUNT / LYMPHOCYTE / MEAN CORPUSCULAR HEMOGLOBIN / MEAN CORPUSCULAR HEMOGLOBIN CONCENTRATION / MONOCYTE / NEUTROPHIL / NUCLEATED RED BLOOD CELLS / PLATELET COUNT: tissue Blood; for ALANINE AMINOTRANSFERASE / ALBUMIN / ALKALINE PHOSPHATASE / ASPARTATE AMINOTRANSFERASE / BLOOD UREA NITROGEN / CARBON DIOXIDE / CHLORIDE / CHOLESTEROL / CREATINE PHOSPHOKINASE / CREATININE / GLUCOSE / LACTATE DEHYDROGENASE / LIPASE / PHOSPHORUS / POTASSIUM / SODIUM / TOTAL BILIRUBIN / TOTAL PROTEIN / URIC ACID: tissue Plasma
[1] = 0 mg/kg, 72 h, dose level Control, time 3 day
[2] = 0 mg/kg, 120 h, dose level Control, time 5 day
[3] = 250 mg/kg, 72 h, dose level Low, time 3 day

Cc1noc(NS(=O)(=O)c2ccc(N)cc2)c1C [SULFISOXAZOLE]
ABSOLUTE BASOPHIL [1]: 0 CELLS/uL | ABSOLUTE EOSINOPHIL [1]: 0 CELLS/uL | ABSOLUTE LYMPHOCYTE [1]: 11091.17 CELLS/uL | ABSOLUTE MONOCYTE [1]: 172.17 CELLS/uL | ABSOLUTE SEGMENTED NEUTROPHIL [1]: 1186.67 CELLS/uL | BASOPHIL [1]: 0% | EOSINOPHIL [1]: 0% | ERYTHROCYTE COUNT [1]: 5.87 x10E6/uL | HEMATOCRIT [1]: 36.87% | HEMOGLOBIN [1]: 14.03 G/DL | LEUKOCYTE COUNT [1]: 12.45 x10E3/uL | LYMPHOCYTE [1]: 88.67% | MEAN CORPUSCULAR HEMOGLOBIN [1]: 23.93 pg | MEAN CORPUSCULAR HEMOGLOBIN CONCENTRATION [1]: 38.1 G/DL | MONOCYTE [1]: 1.5% | NEUTROPHIL [1]: 9.83% | NUCLEATED RED BLOOD CELLS [1]: 0 /100WBC | PLATELET COUNT [1]: 1150.33 x10E3/uL | ALANINE AMINOTRANSFERASE [1]: 67.17 u/L | ALBUMIN [1]: 4.03 G/DL | ALKALINE PHOSPHATASE [1]: 462.5 u/L | ASPARTATE AMINOTRANSFERASE [1]: 88 u/L | BLOOD UREA NITROGEN [1]: 13.17 mg/dL | CARBON DIOXIDE [1]: 29.33 mmol/L | CHLORIDE [1]: 101 MEQ/L | CHOLESTEROL [1]: 69.17 mg/dL | CREATINE PHOSPHOKINASE [1]: 292.5 u/L | CREATININE [1]: 0.17 mg/dL | GLUCOSE [1]: 167.5 mg/dL | LACTATE DEHYDROGENASE [1]: 198.5 u/L | LIPASE [1]: 10.67 u/L | PHOSPHORUS [1]: 11.73 mg/dL | POTASSIUM [1]: 5.91 MEQ/L | SODIUM [1]: 143.3 MEQ/L | TOTAL BILIRUBIN [1]: 0.18 mg/dL | TOTAL PROTEIN [1]: 5.7 G/DL | URIC ACID [1]: 1.3 mg/dL | ABSOLUTE BASOPHIL [2]: 0 CELLS/uL | ABSOLUTE EOSINOPHIL [2]: 64.33 CELLS/uL | ABSOLUTE LYMPHOCYTE [2]: 12494.67 CELLS/uL | ABSOLUTE MONOCYTE [2]: 117 CELLS/uL | ABSOLUTE SEGMENTED NEUTROPHIL [2]: 1340.67 CELLS/uL | BASOPHIL [2]: 0% | EOSINOPHIL [2]: 0.33% | ERYTHROCYTE COUNT [2]: 5.82 x10E6/uL | HEMATOCRIT [2]: 36.97% | HEMOGLOBIN [2]: 14.18 G/DL | LEUKOCYTE COUNT [2]: 14.02 x10E3/uL | LYMPHOCYTE [2]: 89% | MEAN CORPUSCULAR HEMOGLOBIN [2]: 24.42 pg | MEAN CORPUSCULAR HEMOGLOBIN CONCENTRATION [2]: 38.4 G/DL | MONOCYTE [2]: 0.83% | NEUTROPHIL [2]: 9.83% | NUCLEATED RED BLOOD CELLS [2]: 0 /100WBC | PLATELET COUNT [2]: 1097.83 x10E3/uL | ALANINE AMINOTRANSFERASE [2]: 58.83 u/L | ALBUMIN [2]: 3.92 G/DL | ALKALINE PHOSPHATASE [2]: 414.17 u/L | ASPARTATE AMINOTRANSFERASE [2]: 89.17 u/L | BLOOD UREA NITROGEN [2]: 16.83 mg/dL | CARBON DIOXIDE [2]: 29.17 mmol/L | CHLORIDE [2]: 100.33 MEQ/L | CHOLESTEROL [2]: 54.5 mg/dL | CREATINE PHOSPHOKINASE [2]: 386.17 u/L | CREATININE [2]: 0.23 mg/dL | GLUCOSE [2]: 184.17 mg/dL | LACTATE DEHYDROGENASE [2]: 229.17 u/L | LIPASE [2]: 10.83 u/L | PHOSPHORUS [2]: 10.88 mg/dL | POTASSIUM [2]: 5.97 MEQ/L | SODIUM [2]: 142.2 MEQ/L | TOTAL BILIRUBIN [2]: 0.12 mg/dL | TOTAL PROTEIN [2]: 5.63 G/DL | URIC ACID [2]: 1.55 mg/dL | ABSOLUTE BASOPHIL [3]: 0 CELLS/uL | ABSOLUTE EOSINOPHIL [3]: 53.33 CELLS/uL | ABSOLUTE LYMPHOCYTE [3]: 12619.33 CELLS/uL | ABSOLUTE MONOCYTE [3]: 200.67 CELLS/uL | ABSOLUTE SEGMENTED NEUTROPHIL [3]: 1193.33 CELLS/uL | BASOPHIL [3]: 0% | EOSINOPHIL [3]: 0.33% | ERYTHROCYTE COUNT [3]: 5.71 x10E6/uL | HEMATOCRIT [3]: 36.37% | HEMOGLOBIN [3]: 14.1 G/DL | LEUKOCYTE COUNT [3]: 14.07 x10E3/uL | LYMPHOCYTE [3]: 89.67% | MEAN CORPUSCULAR HEMOGLOBIN [3]: 24.7 pg | MEAN CORPUSCULAR HEMOGLOBIN CONCENTRATION [3]: 38.77 G/DL | MONOCYTE [3]: 1.33% | NEUTROPHIL [3]: 8.67% | NUCLEATED RED BLOOD CELLS [3]: 0 /100WBC | PLATELET COUNT [3]: 1238.67 x10E3/uL | ALANINE AMINOTRANSFERASE [3]: 58.33 u/L | ALBUMIN [3]: 4.03 G/DL | ALKALINE PHOSPHATASE [3]: 426.33 u/L | ASPARTATE AMINOTRANSFERASE [3]: 80.67 u/L | BLOOD UREA NITROGEN [3]: 15 mg/dL | CARBON DIOXIDE [3]: 27.33 mmol/L | CHLORIDE [3]: 102.67 MEQ/L | CHOLESTEROL [3]: 67.67 mg/dL | CREATINE PHOSPHOKINASE [3]: 283.67 u/L | CREATININE [3]: 0.16 mg/dL | GLUCOSE [3]: 171.67 mg/dL | LACTATE DEHYDROGENASE [3]: 137.33 u/L | LIPASE [3]: 9.67 u/L | PHOSPHORUS [3]: 11.9 mg/dL | POTASSIUM [3]: 6.14 MEQ/L | SODIUM [3]: 145.13 MEQ/L | TOTAL BILIRUBIN [3]: 0.13 mg/dL | TOTAL PROTEIN [3]: 5.6 G/DL
